In patent US6355685B1, “Method of treating anxiety disorders” (Knoll Pharmaceutical Company, priority 1999, dated 2002):

Tested on: rat elevated plus-maze
Test: rat elevated plus-maze (animal model of anxiety)
Format: in vivo
Conditions: 3 mg/kg po
Method: This model was carried out as described in J. Neurosci. Methods 1985; 14:149-167.

CC(C)CC(N(C)C)C1(c2ccc(Cl)cc2)CCC1.Cl.O (stereo not shown) [N-{1-[1-(4-chlorophenyl)cyclobutyl]-3-methylbutyl}-N,N-dimethylamine hydrochloride monohydrate]
open: total arm entry ratio: significant anxiolytic-like increase
